Test results taken from the NIST ThermoML archive (doi:10.1021/je0301489).
“And” between values parts separate entries of the source, which are not always exact repeats. Equal values may be shown once.

Columns and labels:
[1] = 101.33 kPa, Liquid
[2] = refractive index (Na D-line) (dimensionless); details: 101.33 kPa, Liquid
[3] = xn = mol fraction of the nth substance listed; details: 101.33 kPa, Liquid
[4] = refractive index (Na D-line) (dimensionless); xn = mol fraction of the nth substance listed; details: 101.33 kPa, Liquid

C1COCCO1 [1,4-dioxane]
Details | mass density, 298.15 K [kg/m3] | mass density, 303.15 K [kg/m3] | mass density, 308.15 K [kg/m3] | refractive index, 298.15 K | refractive index, 303.15 K | refractive index, 308.15 K | speed of sound, 298.15 K | viscosity, 298.15 K | viscosity, 303.15 K [mPa·s] | viscosity, 308.15 K [mPa·s]
[1] | 1027.6 | 1021.9 | 1016.2 | – | – | – | 1347 m/s and 1348 m/s | 1.166 mPa·s and 1.167 mPa·s | 1.069 | 0.984
[2] | – | – | – | 1.4201 and 1.4202 | 1.417 | 1.4144 | – | – | – | –

CCOC(=O)C(=O)OCC [diethyl ethanedioate]
Details | mass density, 298.15 K [kg/m3] | mass density, 303.15 K [kg/m3] | mass density, 308.15 K [kg/m3] | refractive index, 298.15 K | refractive index, 303.15 K | refractive index, 308.15 K | speed of sound, 298.15 K [m/s] | viscosity, 298.15 K [mPa·s] | viscosity, 303.15 K [mPa·s] | viscosity, 308.15 K [mPa·s]
[1] | 1072.9 | 1066.2 | 1060.8 | – | – | – | 1276 | 1.759 | 1.581 | 1.437
[2] | – | – | – | 1.4084 | 1.406 | 1.4034 | – | – | – | –

CCOC(=O)c1ccccc1C(=O)OCC [diethyl phthalate]
Details | mass density, 298.15 K [kg/m3] | mass density, 303.15 K [kg/m3] | mass density, 308.15 K [kg/m3] | refractive index, 298.15 K | refractive index, 303.15 K | refractive index, 308.15 K | speed of sound, 298.15 K [m/s] | viscosity, 298.15 K [mPa·s] | viscosity, 303.15 K [mPa·s] | viscosity, 308.15 K [mPa·s]
[1] | 1115.1 | 1110.2 | 1105.6 | – | – | – | 1446 | 7.926 | 6.129 | 4.893
[2] | – | – | – | 1.5001 | 1.4978 | 1.4958 | – | – | – | –

CCCCCCCCOC(=O)c1ccccc1C(=O)OCCCCCCCC [dioctyl 1,2-benzenedicarboxylate]
Details | mass density, 298.15 K [kg/m3] | mass density, 303.15 K [kg/m3] | mass density, 308.15 K [kg/m3] | refractive index, 298.15 K | refractive index, 303.15 K | refractive index, 308.15 K | speed of sound, 298.15 K [m/s] | viscosity, 298.15 K [mPa·s] | viscosity, 303.15 K [mPa·s] | viscosity, 308.15 K [mPa·s]
[1] | 980.7 | 977.1 | 973.1 | – | – | – | 1421 | 43.03 | 30.18 | 21.88
[2] | – | – | – | 1.485 | 1.4831 | 1.481 | – | – | – | –

CCOC(=O)CC(C)=O [ethyl 3-oxobutanoate]
Details | mass density, 298.15 K [kg/m3] | mass density, 303.15 K [kg/m3] | mass density, 308.15 K [kg/m3] | refractive index, 298.15 K | refractive index, 303.15 K | refractive index, 308.15 K | speed of sound, 298.15 K [m/s] | viscosity, 298.15 K [mPa·s] | viscosity, 303.15 K [mPa·s] | viscosity, 308.15 K [mPa·s]
[1] | 1020.9 | 1014.9 | 1010.2 | – | – | – | 1331 | 1.48 | 1.339 | 1.239
[2] | – | – | – | 1.4166 | 1.4145 | 1.412 | – | – | – | –

CCOC(=O)CC(C)=O [ethyl 3-oxobutanoate] + C1COCCO1
Details | mass density, 298.15 K [kg/m3] | mass density, 303.15 K [kg/m3] | mass density, 308.15 K [kg/m3] | refractive index, 298.15 K | refractive index, 303.15 K | refractive index, 308.15 K | speed of sound, 298.15 K [m/s] | viscosity, 298.15 K [mPa·s] | viscosity, 303.15 K [mPa·s] | viscosity, 308.15 K [mPa·s]
[3], x2 = 0 | 1020.9 | 1014.9 | 1010.2 | – | – | – | 1331 | 1.48 | 1.339 | 1.239
[3], x2 = 0.1134 | 1021.5 | 1016 | 1010.6 | – | – | – | 1335 | 1.425 | 1.311 | 1.197
[3], x2 = 0.2058 | 1022.1 | 1016.5 | 1011 | – | – | – | 1338 | 1.386 | 1.276 | 1.165
[3], x2 = 0.3054 | 1022.7 | 1017.1 | 1011.4 | – | – | – | 1340 | 1.346 | 1.24 | 1.133
[3], x2 = 0.4008 | 1023.3 | 1017.6 | 1011.9 | – | – | – | 1342 | 1.309 | 1.205 | 1.102
[3], x2 = 0.4986 | 1024 | 1018.2 | 1012.4 | – | – | – | 1344 | 1.272 | 1.172 | 1.072
[3], x2 = 0.5955 | 1024.7 | 1018.8 | 1013 | – | – | – | 1345 | 1.237 | 1.14 | 1.044
[3], x2 = 0.6972 | 1025.4 | 1019.5 | 1013.7 | – | – | – | 1346 | 1.208 | 1.115 | 1.021
[3], x2 = 0.7971 | 1026.1 | 1020.3 | 1014.4 | – | – | – | 1346 | 1.182 | 1.091 | 1
[3], x2 = 0.8964 | 1026.8 | 1021 | 1015.2 | – | – | – | 1347 | 1.166 | 1.077 | 0.988
[4], x2 = 0 | – | – | – | 1.4166 | 1.4145 | 1.412 | – | – | – | –
[4], x2 = 0.1134 | – | – | – | 1.417 | 1.4146 | 1.4122 | – | – | – | –
[4], x2 = 0.2058 | – | – | – | 1.4171 | 1.4148 | 1.4124 | – | – | – | –
[4], x2 = 0.3054 | – | – | – | 1.4174 | 1.415 | 1.4126 | – | – | – | –
[4], x2 = 0.4008 | – | – | – | 1.4176 | 1.4154 | 1.413 | – | – | – | –
[4], x2 = 0.4986 | – | – | – | 1.4178 | 1.4155 | 1.413 | – | – | – | –
[4], x2 = 0.5955 | – | – | – | 1.418 | 1.416 | 1.4132 | – | – | – | –
[4], x2 = 0.6972 | – | – | – | 1.4186 | 1.4162 | 1.4137 | – | – | – | –
[4], x2 = 0.7971 | – | – | – | 1.4192 | 1.4166 | 1.414 | – | – | – | –
[4], x2 = 0.8964 | – | – | – | 1.4195 | 1.4169 | 1.4144 | – | – | – | –
